Calls of active or inactive are those of the source. How the calls were made is not given here.
Biological target: T1, Exodeoxyribonuclease V (Escherichia coli (strain K12), UniProt P04993+P07648+P08394)
T1 sequence (P04993 whole entry): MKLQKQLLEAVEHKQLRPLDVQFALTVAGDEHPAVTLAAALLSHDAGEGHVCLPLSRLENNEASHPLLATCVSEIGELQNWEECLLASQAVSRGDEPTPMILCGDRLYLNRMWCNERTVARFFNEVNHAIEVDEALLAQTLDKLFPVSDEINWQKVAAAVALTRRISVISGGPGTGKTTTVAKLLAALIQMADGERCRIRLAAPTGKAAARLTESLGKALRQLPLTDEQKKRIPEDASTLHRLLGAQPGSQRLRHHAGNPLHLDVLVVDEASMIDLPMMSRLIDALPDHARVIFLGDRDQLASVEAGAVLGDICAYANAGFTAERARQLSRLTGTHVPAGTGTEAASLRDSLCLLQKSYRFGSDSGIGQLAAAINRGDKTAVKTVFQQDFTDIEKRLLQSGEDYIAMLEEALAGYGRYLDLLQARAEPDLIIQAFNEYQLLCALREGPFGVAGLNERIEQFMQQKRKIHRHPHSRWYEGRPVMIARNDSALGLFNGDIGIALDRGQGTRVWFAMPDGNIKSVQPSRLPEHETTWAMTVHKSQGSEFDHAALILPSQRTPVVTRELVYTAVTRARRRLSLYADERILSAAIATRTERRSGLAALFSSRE
T1 sequence (P07648 whole entry): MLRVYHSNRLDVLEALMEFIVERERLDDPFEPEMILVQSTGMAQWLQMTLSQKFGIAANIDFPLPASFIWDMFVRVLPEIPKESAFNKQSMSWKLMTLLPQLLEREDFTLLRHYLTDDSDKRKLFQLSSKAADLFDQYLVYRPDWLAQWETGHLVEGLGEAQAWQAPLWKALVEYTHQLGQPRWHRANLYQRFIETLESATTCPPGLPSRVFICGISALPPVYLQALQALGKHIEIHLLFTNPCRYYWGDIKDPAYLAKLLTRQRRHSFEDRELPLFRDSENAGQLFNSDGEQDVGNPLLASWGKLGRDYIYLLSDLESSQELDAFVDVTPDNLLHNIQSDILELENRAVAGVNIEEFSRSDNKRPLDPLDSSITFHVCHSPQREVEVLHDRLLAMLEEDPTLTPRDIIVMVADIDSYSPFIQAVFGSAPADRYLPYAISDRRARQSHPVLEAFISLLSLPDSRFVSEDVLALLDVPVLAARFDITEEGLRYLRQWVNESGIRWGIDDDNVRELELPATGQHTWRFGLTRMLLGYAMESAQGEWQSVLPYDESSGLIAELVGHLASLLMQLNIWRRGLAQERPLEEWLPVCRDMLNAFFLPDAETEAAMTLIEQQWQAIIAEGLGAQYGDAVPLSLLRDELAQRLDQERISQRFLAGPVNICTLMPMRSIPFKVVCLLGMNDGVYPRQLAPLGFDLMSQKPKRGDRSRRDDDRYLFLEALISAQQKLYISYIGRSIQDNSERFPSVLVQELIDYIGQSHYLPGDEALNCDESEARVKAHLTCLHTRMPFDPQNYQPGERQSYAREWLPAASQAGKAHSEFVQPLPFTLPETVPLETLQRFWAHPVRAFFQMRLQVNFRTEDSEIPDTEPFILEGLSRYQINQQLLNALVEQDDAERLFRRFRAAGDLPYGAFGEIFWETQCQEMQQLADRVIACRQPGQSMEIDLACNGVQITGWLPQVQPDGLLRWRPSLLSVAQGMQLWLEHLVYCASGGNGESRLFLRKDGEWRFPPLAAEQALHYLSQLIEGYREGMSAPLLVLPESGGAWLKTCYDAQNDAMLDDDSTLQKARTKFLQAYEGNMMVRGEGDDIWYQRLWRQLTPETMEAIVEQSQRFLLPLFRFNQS
T1 sequence (P08394 whole entry): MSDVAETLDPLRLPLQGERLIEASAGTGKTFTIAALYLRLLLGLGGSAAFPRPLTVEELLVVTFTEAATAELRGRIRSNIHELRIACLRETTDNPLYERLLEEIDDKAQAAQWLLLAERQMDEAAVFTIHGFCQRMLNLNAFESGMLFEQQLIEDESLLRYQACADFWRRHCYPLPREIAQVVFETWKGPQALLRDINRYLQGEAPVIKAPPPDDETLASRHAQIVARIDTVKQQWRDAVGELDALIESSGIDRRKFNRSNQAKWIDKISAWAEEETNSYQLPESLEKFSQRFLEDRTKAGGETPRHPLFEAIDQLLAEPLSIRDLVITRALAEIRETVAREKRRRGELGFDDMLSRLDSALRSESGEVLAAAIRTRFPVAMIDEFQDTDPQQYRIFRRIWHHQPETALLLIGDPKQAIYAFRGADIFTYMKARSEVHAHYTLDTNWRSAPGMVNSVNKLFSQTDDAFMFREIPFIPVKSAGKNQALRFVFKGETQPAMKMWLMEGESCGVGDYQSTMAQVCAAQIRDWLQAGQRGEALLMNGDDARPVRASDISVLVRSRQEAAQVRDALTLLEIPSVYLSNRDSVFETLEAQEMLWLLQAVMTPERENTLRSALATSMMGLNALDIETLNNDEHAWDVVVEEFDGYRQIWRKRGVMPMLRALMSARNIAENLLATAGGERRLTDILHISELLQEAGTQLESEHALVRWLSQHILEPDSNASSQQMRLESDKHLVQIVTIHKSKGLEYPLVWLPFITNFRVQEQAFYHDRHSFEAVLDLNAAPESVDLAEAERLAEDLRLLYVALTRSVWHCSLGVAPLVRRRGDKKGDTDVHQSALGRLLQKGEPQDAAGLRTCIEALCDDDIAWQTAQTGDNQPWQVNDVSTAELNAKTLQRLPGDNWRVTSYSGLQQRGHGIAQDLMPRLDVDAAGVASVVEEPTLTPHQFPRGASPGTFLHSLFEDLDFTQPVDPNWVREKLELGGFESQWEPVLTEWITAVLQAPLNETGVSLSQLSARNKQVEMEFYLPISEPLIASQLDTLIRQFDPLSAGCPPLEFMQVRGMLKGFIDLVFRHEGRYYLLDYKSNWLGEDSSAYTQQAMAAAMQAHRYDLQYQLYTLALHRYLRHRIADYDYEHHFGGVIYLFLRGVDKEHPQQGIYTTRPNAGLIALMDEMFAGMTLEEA
Assay: RecBCD inhibition via phage-restricted bacterial growth – absorbance, V66 E. coli, mutant T4 phage, counter-screen for AddAB inhibitor project, dose response (AID 492957)
Format: functional, cell-based, Escherichia coli str. K-12 substr. MG1655

Compound: CC(C)CC(=O)NC(c1cccs1)c1ccc2cccnc2c1O (stereo unspecified)
- IC50: > 119 µM (inactive)

— ChEMBL document CHEMBL1201862, “PubChem BioAssay data set” (2004)
